Experimental data: US20060160789A1 (priority 2005, published 2006)
Several values for one entry are separate records, joined by “and”; a condition that tells them apart may be missing. Equal values may be shown once.

Tested on: patients hospitalized for a laparotomy in the context of digestive surgery
Conditions: human, in vivo

## CN1CCOC(c2ccccc2)c2ccccc2C1 (centres unmarked) [nefopam]
  Morphine PCA over 24 h: 0.255 mg/kg and 0.454 mg/kg
  Morphine titration (mg): 7.5 mg and 9 mg
  Morphine titration (mg/kg): 0.082 mg/kg and 0.130 mg/kg
  Total morphine over 24 h: 0.365 mg/kg and 0.649 mg/kg
  quantity of morphine titration administered for group 4 versus quantity expected if nefopam only had analgesic effects: smaller than that which would have had to be administered to the group if nefopam only had analgesic effects
